Data published in patent US20260009008A1, “SYNTHETIC GENOME EDITING SYSTEM” (Pencil Biosciences Limited, priority 2021, published 2026).
“Also recorded” adds a separate entry of the source.

Legend:
PDS2 dsDNA bait (ACGGGT) = experiment: ELISA / bio-panning of M13 phage display peptides on biotinylated dsDNA bait PDS2; format: binding; conditions: peptide displayed in the phage library
Excerpt: (§1) As noted above, a commercially available M13 phage display library was employed (New England Biolabs, catalogue #E8111L) which contains around 1×10^912mer peptides fused to the N-terminus of the phage minor coat protein III. Two different 6 nt dsDNA baits were employed with a biotin tag immobilized on a streptavidin-coated 96 well plate as specified in Table 1 below:
(§2) ELISA assays were used to assess binding of peptides of the phage display library to the PDS1 and PDS2 dsDNA baits using an anti-M13 phage antibody labelled with horseradish peroxidase (HRP). After three rounds of bio-panning and sequence analysis of the bound peptides in the library, two 12 mer peptide sequences were selected, chemically synthesised, and modified as set out in Table 2 below.
(§3) • 1. Blocking step of the streptavidin coated 96 well plate (Fisher Scientific, UK) with the Blocking Buffer (0.1 M NaHCO3 (pH 8.6), 5 mg/ml BSA, filter sterilised and stored at 4° C.). • 2. 6 rounds of wash with 1× TBST after discarding the blocking solution. • 3. Precomplexing step (this step can be done at the same time as the blocking step, mentioned above), where the amplified phage library was incubated with each of the dsDNA baits in separate reactions. Each bait includes annealed double stranded DNA oligos (dsDNA), containing one of the PDS sites. […]

[1] = Observation of peptide aggregation / precipitation; format: physicochemical
[2] = test system: molecular beacon DNA oligonucleotide (SEQ. ID. No. 60); experiment: Molecular beacon assay for DNA binding and cleavage; format: biochemical; conditions: for emission signal of the fluorophore after a 15-minute incubation: peptide:molecular beacon 500:1, beacon 400 nM, 5 mM MnCl2; for signal / disassembly of the molecular beacon with different metal ions: zinc, manganese, calcium and magnesium chloride
Excerpt: A molecular beacon assay was firstly used to screen each of the peptides for DNA binding and cleavage. For the purpose of these studies, the following DNA oligonucleotide containing 33 nucleotides was employed
where the first six nucleotides at each terminus complement one another forming a 6 bp double stranded DNA stem.
The hairpin structure formed contains a fluorescein molecule as a 5′ modification (6-FAM) and a fluorescent quencher (BHQ1) as a 3′ modification. In the hairpin conformation the fluorescent signal of the molecular beacon is reduced. If a peptide binds or causes cleavage, the hairpin structure will disassemble releasing the fluorophore from the quencher.
The reaction conditions were chosen to reflect conditions that might be expected to strengthen the probability of DNA cleavage by each peptide. As noted above, the peptide designs were inspired by the catalytic active sites of known nucleases. Often the divalent metal of choice for such sites is Mg^2 +. […] In contrast Mn^2 + ions require less coordination sites to facilitate catalysis.
Each reaction was carried out in a reaction buffer of 25 mM Tris-HCl (pH 7.5), 130 mM NaCl, 27μM KCl and 5 mM MnCl2. The molecular beacon was provided at a concentration of 400 nM.
The emission signal of the fluorophore after a 15-minute incubation was measured for each peptide mixed with the molecular beacon at a 500:1 concentration ratio.

plasmid DNA (pBR322) = experiment: Gel plasmid cleavage assay; format: biochemical; conditions: for percentage of nicked plasmid with increasing peptide concentration: after 12 hours
Excerpt: For this reason a further gel plasmid cleavage assay was employed to look for cleavage. Such a gel cleavage assay can differentiate between plasmid that is intact (no cleavage), nicked (ssDNA cleavage) and linearised (dsDNA cleavage) as the three plasmid species will migrate differently on an agarose gel. Intact plasmids have a supercoiled structure and therefore can migrate easily through an agarose gel whereas a ssDNA cleavage on the plasmid will relax this supercoiled structure. This produces a relaxed circle/nicked structure that migrates more slowly through the pores. The dsDNA cleavage of a plasmid produces a linearised plasmid. The linear structure migrates faster than a relaxed circular structure although not as fast as the supercoiled structure.
To optimize the assay, plasmid DNA (pBR322) was mixed with increasing concentrations of the peptide bL or bN, in the presence of Zn^2 + ions. […] The percentage of nicked species increases with greater peptide concentration for both bL and bN. […] An increasing proportion of the plasmid DNA is also observed in the wells of the gel. This DNA can be binding to the peptide causing a complex that is unable to migrate into the gel.

PDS1 dsDNA bait (GAGGTC) = experiment: ELISA / bio-panning of M13 phage display peptides on biotinylated dsDNA bait PDS1; format: binding; conditions: peptide displayed in the phage library
Excerpt: as §1, §2, §3

[3] = test system: nanoluciferase expression cassette with PDS variants in the target region; experiment: Nanoluciferase detection assay for binding ability of the DBD to variant PDSs (ApGet-i); format: cell-based; conditions: EPI300 cells, ApGet-i induced with ATC, nanoluciferase induced with IPTG
Excerpt: As noted above the DBD of sequence SLETWLKHREKDGGS (SEQ. ID. No. 4) was selected on the basis of binding affinity for the dsDNA sequence represented by the 5′ to 3′ sequence 5′GAGGTC3′ (the initially chosen predetermined sequence (PDS) for use in targeting). A further study was undertaken to determine the importance of various nucleotides in this PDS for binding to the same DBD using a nanoluciferase detection assay (Promega). This was on the basis of the prior observation as noted above that expression of ApGet-i in bacteria can suppress transcription of sequences containing target sites for the NAC plus the PDS used for DBD selection.
A nanoluciferase expression cassette was cloned in a second plasmid vector (the Detector plasmid) with the PDS as originally used for DBD selection and variants of that PDS in the target region as shown in FIG. 22.
Bacterial cells were transformed with the Editor plasmid in which ApGet-i expression was under the control of a TetR promoter. The NAC was also expressed by the same plasmid under the control of a constitutive J23119 promoter. The Detector and Editor plasmids were provided with different resistance genes and compatible origins of replication. […] The signal of the nanoluciferase was monitored on the microplate reader and normalized to take account of the degree of bacterial growth in the culture. […]

[4] = test system: extended dsDNA containing the cognate PDS (PDS1); experiment: T7E1 cleavage assay for peptide binding and unwinding of dsDNA target; format: biochemical; conditions: chemically synthesized peptides, PDS1 as cognate PDS
Excerpt: FIG. 4: Cleavage assay results using T7E1 enzyme for binding of the chemically synthesized peptides 1, 2, 3 and 4 (Table 2 in Example 1) to the two 6 nt sequences as above designated PDS1 and PDS2 in a dsDNA target and unwinding of the dsDNA target.
It was reasoned that the phage clones with the selected DNA binding peptides will alter a DNA duplex in a region presenting the cognate PDS, which may result in recognition by DNA nucleases, such as T7E1, commonly used to detect insertions or deletions (indels), which result from the activity of genome editing enzymes, such as Cas9, Cas12a etc. Results of such cleavage assays for destabilized DNA duplex using the extended dsDNA baits as set out in Table 3 below and T7E1 and Surveyor enzymes support this hypothesis (see FIGS. 3a-c), i.e. that binding of the clones presenting the selected fused peptides to dsDNA destabilizes the structure of the DNA duplex in a manner facilitating accessibility for RNA hybridization.
The modified peptides as set out in Table 2 were used to test the sequences for use as DNA-binding domains without M13 phage connection. The modifications included amidation and acetylation at the […] to reflect natural peptide modifications to improve peptide stability and prevent degradation. In the case of Peptides 1 and 3, an additional C-terminal linker (GGS) was provided as noted above. […]

[5] = test system: PDS1 in an extended dsDNA target; experiment: FRET experiment for binding/unwinding of dsDNA and RNA hybridization; format: biochemical; conditions: FAM-tagged targeting RNA, target DNA tagged with Cy5 or Texas Red
Experimental: FIG. 5: Schematic diagram illustrating a FRET experiment to assess specific binding and unwinding of a dsDNA target by peptide binding to a PDS with RNA hybridization. Results are also shown for binding of Peptide 1 (SEQ. ID. No. 37 as shown in Table 2) to PDS1 having the 5′ to 3′ sequence GAGGTC. The FRET signal was determined upon incubation of the PDS1 containing dsDNA targets with 5′ FAM-RNA with (2, 4) or without peptide (1, 3).
A FRET experiment was carried out to assess the binding and unwinding activity of Peptide 1 with ability to facilitate RNA hybridization when presented with PDS1 in an extended dsDNA target as shown schematically in FIG. 5. It was hypothesized that, upon binding, Peptide 1 will cause some transient unwinding of the dsDNA which will facilitate binding of a targeting RNA. The fluorescent donor, 6-carboxyfluorescein (FAM), was used to tag an appropriate targeting RNA with a 15 bp complementary sequence. Target DNA was tagged with the fluorescent acceptor Cy5 at a 3′ end or Texas Red at a 5′-end.

AGDWESWTNGSW [Peptide 4]
binding to the PDS2 dsDNA bait (PDS2 dsDNA bait (ACGGGT)): binding to the PDS2 dsDNA bait

IEIDIHI [ibD]
aggregation / precipitation of peptide [1]: no observable aggregates even at the highest tested concentration

IHIDISI [bN]
signal with increasing peptide concentration, Zn2+ ions ([2]; Zn2+ ions, peptide 0-800 μM): still increase up to 800μM
signal without any metal ions ([2]; no metal): high signal
signal for the disassembly of the molecular beacon with increasing peptide concentration ([2]; peptide 0-800 μM, Mn2+ or Zn2+): general increase
signal with Mn2+ ions compared with Mg2+ ions ([2]; peptide concentration 400 μM, beacon 400 nM): greater than the bN peptide with Mg^2 + ions
emission signal of the fluorophore after a 15-minute incubation [2]: relatively high emission signal
signal / disassembly of the molecular beacon with different metal ions [2]: high increase in the signal regardless of the metal; also recorded: greater with Mn^2 + ions
cleavage of plasmid (plasmid DNA (pBR322)): some cleavage
percentage of nicked plasmid with increasing peptide concentration (plasmid DNA (pBR322); Zn2+ ions): increase in the percentage of nicked plasmid

LDLDLKLHL [bL]
emission signal of the fluorophore after a 15-minute incubation [2]: relatively high emission signal
signal / disassembly of the molecular beacon with different metal ions [2]: more extensive in the presence of zinc chloride ions
cleavage of plasmid (plasmid DNA (pBR322)): some cleavage
amount of nicked plasmid at higher peptide concentrations (greater than 600 μM) (plasmid DNA (pBR322); Zn2+ ions, 12 hours): continues to increase
percentage of nicked plasmid with increasing peptide concentration (plasmid DNA (pBR322); Zn2+ ions): increase in the percentage of nicked plasmid

SLETWLKHREKD [Peptide 2]
binding ability for the PDS1 dsDNA bait (PDS1 dsDNA bait (GAGGTC)): high binding ability

SLETWLKHREKDGGS (DBD) [DBD of SEQ. ID. No. 4]
inhibition of luciferase expression with different PDSs ([3]; listed as DBD): effective in inhibiting expression of the luciferase
inhibition of luciferase expression with different PDSs ([3]; listed as DBD of SEQ. ID no. 4): shown to be effective

SLETWLKHREKDGGS [Peptide 1]
binding and non-duplex structure formation (T7E1 cleavage) [4]: best candidate to be a DNA-binding domain
RNA-DNA hybridisation reflected by FRET signal [5]: shown to be facilitated; also recorded: increase of FRET signal
